Assay results as given in patent US11149054B2, “Oxysterols and methods of use thereof” (Sage Therapeutics, Inc., priority 2016, dated 2021).
Where two headings read alike, the source gives them in different places.

How the values were obtained:
[1] = biological target: GluN2B glutamate receptors (Homo sapiens (Human), UniProt Q05586+Q13224); assay: Whole-cell patch clamp of mammalian cells (Ionworks Barracuda), positive allosteric modulation, GluN2B; assay type: cell-based; conditions: for Emax: % potentiation of current elicited with EC20 L-glutamate and 30 μM glycine, read-out: Avg Emax 2B (%)
GluN2B glutamate receptors, sequence (Q13224 27-1484, other chains not shown): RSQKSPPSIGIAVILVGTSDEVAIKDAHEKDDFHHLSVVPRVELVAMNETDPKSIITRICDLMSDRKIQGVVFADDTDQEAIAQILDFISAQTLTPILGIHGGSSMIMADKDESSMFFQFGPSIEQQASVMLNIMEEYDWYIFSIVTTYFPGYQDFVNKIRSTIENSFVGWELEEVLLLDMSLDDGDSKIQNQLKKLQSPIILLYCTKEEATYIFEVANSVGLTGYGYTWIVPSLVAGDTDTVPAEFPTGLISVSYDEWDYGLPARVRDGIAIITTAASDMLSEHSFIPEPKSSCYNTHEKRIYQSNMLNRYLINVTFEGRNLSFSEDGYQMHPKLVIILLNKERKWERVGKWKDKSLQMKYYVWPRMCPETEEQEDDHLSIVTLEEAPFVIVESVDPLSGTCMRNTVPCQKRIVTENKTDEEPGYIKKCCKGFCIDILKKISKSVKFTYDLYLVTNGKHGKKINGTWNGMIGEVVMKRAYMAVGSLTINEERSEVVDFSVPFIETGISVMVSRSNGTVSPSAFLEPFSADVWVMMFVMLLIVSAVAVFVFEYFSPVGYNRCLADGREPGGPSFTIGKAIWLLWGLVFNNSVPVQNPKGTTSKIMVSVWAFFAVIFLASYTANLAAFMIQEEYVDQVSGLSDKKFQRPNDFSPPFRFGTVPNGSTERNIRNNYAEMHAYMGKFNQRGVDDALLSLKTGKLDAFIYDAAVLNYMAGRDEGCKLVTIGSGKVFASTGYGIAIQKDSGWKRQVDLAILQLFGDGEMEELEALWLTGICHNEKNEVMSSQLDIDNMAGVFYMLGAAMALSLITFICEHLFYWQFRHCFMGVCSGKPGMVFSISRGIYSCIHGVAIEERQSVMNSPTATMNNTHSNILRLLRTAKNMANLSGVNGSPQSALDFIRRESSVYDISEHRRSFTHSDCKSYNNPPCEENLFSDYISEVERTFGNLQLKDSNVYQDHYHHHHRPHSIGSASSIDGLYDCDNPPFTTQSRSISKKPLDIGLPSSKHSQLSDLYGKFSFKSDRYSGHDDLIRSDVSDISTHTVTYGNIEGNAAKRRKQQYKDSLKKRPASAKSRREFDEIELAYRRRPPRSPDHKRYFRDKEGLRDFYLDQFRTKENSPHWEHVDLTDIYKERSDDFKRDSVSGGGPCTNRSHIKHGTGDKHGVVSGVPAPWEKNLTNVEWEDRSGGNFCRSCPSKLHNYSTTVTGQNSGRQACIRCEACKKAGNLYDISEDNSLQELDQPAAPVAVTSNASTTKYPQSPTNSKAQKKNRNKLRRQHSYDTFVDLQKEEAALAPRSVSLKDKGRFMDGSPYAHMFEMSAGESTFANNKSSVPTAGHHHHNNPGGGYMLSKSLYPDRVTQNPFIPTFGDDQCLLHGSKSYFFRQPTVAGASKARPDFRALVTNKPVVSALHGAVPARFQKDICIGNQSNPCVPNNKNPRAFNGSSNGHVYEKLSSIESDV
Procedure, shortened: (§1)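 Perforated-patch whole-cell recording, holding −70 mV, −40 mV during application; Cs-based internal pH 7.2, external with 5 mM CaCl2 pH 7.4. Test article pre-applied alone 5 min, then co-applied with EC20 L-glutamate plus 30 μM glycine. EC50 from Hill fit of % activation over the EC20 current.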

[2] = biological target: GlunN1/GluN2A glutamate receptors (Homo sapiens (Human), UniProt Q05586+Q12879); assay: Whole-cell patch clamp of mammalian cells (Ionworks Barracuda), positive allosteric modulation, GluN1/GluN2A; assay type: cell-based; conditions: for Emax: % potentiation of current elicited with EC20 L-glutamate and 30 μM glycine, read-out: Avg Emax 2A (%)
GlunN1/GluN2A glutamate receptors, sequence (Q12879 23-1464, other chains not shown): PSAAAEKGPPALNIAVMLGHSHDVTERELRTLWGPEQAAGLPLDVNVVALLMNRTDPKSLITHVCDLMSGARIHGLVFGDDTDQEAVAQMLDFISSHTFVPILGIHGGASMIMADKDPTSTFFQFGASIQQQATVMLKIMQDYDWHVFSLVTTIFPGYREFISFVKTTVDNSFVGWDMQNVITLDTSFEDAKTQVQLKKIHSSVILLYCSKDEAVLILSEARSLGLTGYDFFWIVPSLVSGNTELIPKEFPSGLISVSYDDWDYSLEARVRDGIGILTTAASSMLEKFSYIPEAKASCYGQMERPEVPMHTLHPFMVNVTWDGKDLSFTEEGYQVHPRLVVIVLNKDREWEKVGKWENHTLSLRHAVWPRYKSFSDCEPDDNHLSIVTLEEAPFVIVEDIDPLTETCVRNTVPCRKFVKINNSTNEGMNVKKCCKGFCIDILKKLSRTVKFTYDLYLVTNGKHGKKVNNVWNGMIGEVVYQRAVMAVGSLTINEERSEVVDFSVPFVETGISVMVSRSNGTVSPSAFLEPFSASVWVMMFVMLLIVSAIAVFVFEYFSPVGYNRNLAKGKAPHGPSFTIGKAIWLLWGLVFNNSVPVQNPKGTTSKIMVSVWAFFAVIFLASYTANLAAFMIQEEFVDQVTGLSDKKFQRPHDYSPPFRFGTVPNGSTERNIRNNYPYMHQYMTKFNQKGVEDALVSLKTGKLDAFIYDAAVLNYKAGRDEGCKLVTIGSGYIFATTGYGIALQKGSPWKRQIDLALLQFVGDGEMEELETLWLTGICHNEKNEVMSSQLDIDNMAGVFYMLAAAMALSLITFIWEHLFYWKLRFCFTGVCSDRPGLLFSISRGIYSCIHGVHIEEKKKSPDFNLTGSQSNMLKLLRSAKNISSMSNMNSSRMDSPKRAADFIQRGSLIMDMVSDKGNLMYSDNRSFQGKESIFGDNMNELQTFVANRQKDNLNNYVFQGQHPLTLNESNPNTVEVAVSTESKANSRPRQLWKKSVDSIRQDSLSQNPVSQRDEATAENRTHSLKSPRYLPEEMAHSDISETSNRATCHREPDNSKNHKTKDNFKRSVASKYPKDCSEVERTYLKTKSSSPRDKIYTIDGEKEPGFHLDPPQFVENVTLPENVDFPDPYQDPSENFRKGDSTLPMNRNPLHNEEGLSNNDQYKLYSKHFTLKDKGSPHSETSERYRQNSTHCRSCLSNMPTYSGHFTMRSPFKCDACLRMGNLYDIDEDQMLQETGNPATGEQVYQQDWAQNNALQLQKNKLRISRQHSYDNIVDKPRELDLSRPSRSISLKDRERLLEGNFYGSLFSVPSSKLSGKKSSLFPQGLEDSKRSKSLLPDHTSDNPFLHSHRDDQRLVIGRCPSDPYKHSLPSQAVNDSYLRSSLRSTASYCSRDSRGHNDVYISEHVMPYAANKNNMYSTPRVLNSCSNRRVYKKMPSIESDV
Procedure, shortened: as §1

CC[C@]1(O)CC[C@@]2(C)C(=CC[C@H]3[C@@H]4CC[C@H]([C@H](C)CCC(O)Cc5ccccc5)[C@@]4(C)CC[C@@H]32)C1 (some centres unmarked) [Compound 6010]
EC50 [1]: 1.57 µM
Emax [1]: 184%
EC50 [2]: 1.1 µM
Emax ([2]; HEK293 cells): 239%

CC[C@]1(O)CC[C@@]2(C)C(=CC[C@H]3[C@@H]4CC[C@H]([C@H](C)CC[C@H](O)Cc5ccccc5)[C@@]4(C)CC[C@@H]32)C1 [Compound 6051]
EC50 [1]: 1.26 µM
Emax [1]: 292%
EC50 [2]: 0.5 µM
Emax ([2]; HEK293 cells): 293%

CC[C@]1(O)CC[C@@]2(C)C(=CC[C@H]3[C@@H]4CC[C@H]([C@H](C)CC[C@@H](O)Cc5ccccc5)[C@@]4(C)CC[C@@H]32)C1 [Compound 6052]
EC50 [1]: 0.232 µM
Emax [1]: 92.2%
EC50 [2]: 0.426 µM
Emax ([2]; HEK293 cells): 102%

CC[C@]1(O)CC[C@@]2(C)C(=CC[C@H]3[C@@H]4CC[C@H]([C@H](C)CC[C@H](O)c5ccccn5)[C@@]4(C)CC[C@@H]32)C1 [Compound 6347]
EC50 [1]: 0.311 µM
Emax [1]: 132%
EC50 [2]: 0.268 µM
Emax ([2]; HEK293 cells): 64.7%

CC[C@]1(O)CC[C@@]2(C)C(=CC[C@H]3[C@@H]4CC[C@H]([C@H](C)CC[C@@H](O)c5ccccn5)[C@@]4(C)CC[C@@H]32)C1 [Compound 6348]
EC50 [1]: 0.663 µM
Emax [1]: 133%
EC50 [2]: 0.26 µM
Emax ([2]; HEK293 cells): 79.7%

CC[C@]1(O)CC[C@@]2(C)C(=CC[C@H]3[C@@H]4CC[C@H]([C@H](C)CCC(O)c5ccccn5)[C@@]4(C)CC[C@@H]32)C1 (some centres unmarked) [Compound 6457]
EC50 [1]: 0.524 µM
Emax [1]: 168%
EC50 [2]: 0.732 µM
Emax ([2]; HEK293 cells): 198%

CC[C@]1(O)CC[C@@]2(C)C(=CC[C@H]3[C@@H]4CC[C@H]([C@H](C)CC[C@H](O)c5cccnc5)[C@@]4(C)CC[C@@H]32)C1 [Compound 6458]
EC50 [1]: 0.929 µM
Emax [1]: 79.4%
EC50 [2]: > 10 µM
Emax ([2]; HEK293 cells): 30.9%

CC[C@]1(O)CC[C@@]2(C)C(=CC[C@H]3[C@@H]4CC[C@H]([C@H](C)CC[C@@H](O)c5cccnc5)[C@@]4(C)CC[C@@H]32)C1 [Compound 6459]
EC50 [1]: 0.909 µM
Emax [1]: 184%
EC50 [2]: 1.33 µM
Emax ([2]; HEK293 cells): 156%

CC[C@]1(O)CC[C@@]2(C)[C@@H](CC[C@@H]3[C@@H]2CC[C@]2(C)[C@@H]([C@H](C)CCC(O)c4ccccc4)CC[C@@H]32)C1 (some centres unmarked) [Compound 6544]
EC50 [1]: 0.498 µM
Emax [1]: 415%
EC50 [2]: 0.559 µM
Emax ([2]; HEK293 cells): 253%

CC[C@]1(O)CC[C@@]2(C)[C@@H](CC[C@@H]3[C@@H]2CC[C@]2(C)[C@@H]([C@H](C)CC[C@@H](O)c4ccccc4)CC[C@@H]32)C1 [Compound 6571]
EC50 [1]: 0.267 µM
Emax [1]: 241%
EC50 [2]: 0.19 µM
Emax ([2]; HEK293 cells): 158%

CC[C@]1(O)CC[C@@]2(C)[C@@H](CC[C@@H]3[C@@H]2CC[C@]2(C)[C@@H]([C@H](C)CC[C@H](O)c4ccccc4)CC[C@@H]32)C1 [Compound 6572]
EC50 [1]: 1.34 µM
Emax [1]: 251%
EC50 [2]: 0.378 µM
Emax ([2]; HEK293 cells): 129%

CC[C@]1(O)CC[C@@]2(C)[C@@H](CC[C@@H]3[C@@H]2CC[C@]2(C)[C@@H]([C@H](C)CC[C@H](O)c4cccnc4)CC[C@@H]32)C1 [Compound 6754]
Emax [1]: 38.8%
EC50 ([1]; co-application with EC20 L-glutamate and 30 μM glycine, 8-point concentration-response, read-out: Avg EC50 2B): > 10 µM
Emax ([2]; HEK293 cells): 22.3%
EC50 ([2]; HEK293 cells, co-application with EC20 L-glutamate and 30 μM glycine, 8-point concentration-response, read-out: Avg EC50 2A): > 10 µM

CC[C@]1(O)CC[C@@]2(C)[C@@H](CC[C@@H]3[C@@H]2CC[C@]2(C)[C@@H]([C@H](C)CC[C@@H](O)c4cccnc4)CC[C@@H]32)C1 [Compound 6755]
EC50 [1]: > 10 µM
Emax [1]: 44.2%
EC50 [2]: > 10 µM
Emax ([2]; HEK293 cells): 22.8%

CC[C@]1(O)CC[C@@]2(C)C(=CC[C@H]3[C@@H]4CC[C@H]([C@H](C)CC[C@H](O)c5cccc(F)c5)[C@@]4(C)CC[C@@H]32)C1 [Compound 6896]
EC50 [1]: 1.68 µM
Emax [1]: 402%
EC50 [2]: 0.519 µM
Emax ([2]; HEK293 cells): 216%
